Experimental findings from patent US8575170B2, “Flurbiprofen analogs and methods of use in treating cancer” (The Regents of the Unversity of Colorado, a body corporate, priority 2010, dated 2013) are described below.

Like-named read-outs stand apart in the source and are kept apart here.

One data set has as its system H2122. Nature of the data set: MTT cell viability, H2122 lung carcinoma cell line. The settings on record: IC50 values for the H2122 lung carcinoma cell line, Table 5, read-out: H2122 In vitro. The class given is cell-based. Here is the method: The ability of the flurbiprofen analog compounds of the invention to inhibit cancer cell growth and survival (viability) in a variety of cancer lines was examined in a standard MTT assay for cell viability, as detailed in Example 2.
The IC50 values given in Tables 1-4 were measured using the B1031 ([…]) compound) shown in Section IIB above. To confirm the generality of the results with respect to other fluribprofen analogs prepared in accordance with the invention, IC50 values for the other 11 analog compounds given in Section IIB were similarly determined for the H2122 lung carcinoma cell line.
The studies reported in Tables 1-3 above were carried out by incubating the cells in the test compound for four days, under standard cell-culture conditions, and measuring cell survival on day 5 (see Example 2).
Cell growth and survival following treatment with N—[(S)-2-Fluoro-α-methyl-4-biphenylacetyl]-[L-(4-phenylphenyl)alanine]-N-(2,2,6,6-tetramethyl-4-piperidinyl)amide (GCBH-110=B1031; (S)-Fmba-L-Bip-Atmp) were measured by a rapid colorimetric assay based on the tetrazolium salt MTT (3-(4,5-dimethylthiazol-2-yl)-2,5-diphenyl tetrazolium bromide) (Mosmann, J. Immunol. Methods 65: 55-63, 1983, with minor modifications).
Briefly, approximately 1,000-5,000 cancer cells from 15 different cancer cells lines were plated in 100 μL of growth medium in 96-well flat-bottomed microtiter plates. Cells were incubated overnight to allow recovery. Compounds to be tested were added to the cells in triplicate in a range of concentrations and the cells were incubated at 37° C., 5% CO2, with 100% humidity. Control cells were treated in the same way without antagonists. […] Plates were incubated for 4 days, allowing sufficient time for cell replication and compound-induced cell death to occur. On day 5, 25 μL of a 2 mg/mL solution of MTT (Sigma) dissolved in RMPI-1640 was added to each well. The plate was incubated for 4 h at 37° C. The supernatant liquid was removed and the blue formazan complex was dissolved by adding 100 μL of 0.02 N HCl in 75% isopropanol to all wells. Absorbance was immediately determined using a scanning multiwell plate reader.

Data set [1] in a line: Solubility of flurbiprofen analog compounds. In kind it is physicochemical. The settings on record: medium in which the compound is soluble, Table 5.
Data set [2] deals with H2122 lung carcinoma solid tumor xenograft. Nature of the data set: H2122 lung carcinoma xenograft in nude mice. The settings on record: 5 mg/kg daily intraperitoneal, from day 7 after implantation, over the 25 days of treatment, FIG. 11. In kind it is in vivo, athymic nude mice. Here is the method: The efficacy of the treatment method was examined for both lung carcinoma-cell tumors and pancreatic-cell tumors implanted in athymic mice, according to the method detailed in Example 3. In the first study, mice injected with lung-carcinoma cells were treated, seven days after cancer-cell implantation, by daily injection of 5 mg/kg body weight of one of three different flurbiprofen analog compounds: B1005 (GCBH 104); B1020 (GCBH 108) and B1031 (GCBH 110). Tumor size was measured by calipers at the days indicated in FIG. 11, with final tumor weight and volume being determined by extracting the tumor from the sacrificed animals.
Compounds having high in vitro cytotoxic activity were tested against implanted tumors in vivo. In one study, athymic nude mice were implanted subcutaneously with suspensions of approximately 2 million H2122 lung carcinoma cells, in Matrigel suspension. On the seventh day after tumor implantation, groups of 5 mice bearing implants were injected intraperitoneally with the compounds being tested at 5 mg/kg/every day; control animals were injected with an equal volume of isotonic saline. […] Tumor size was measured with a caliper three times per week. Tumor volume was calculated by the formula: Volume (cc)=3.14×(length)×(width)^2/6
At autopsy, tumors were removed and weighed. Tumor inhibition was calculated on both weight and measurement basis.

For another data set, the system named is HT-29 colon cancer cells. Briefly: Loss in cell viability, HT-29 colon cancer cells. In kind it is cell-based. The settings on record: Homo sapiens; HT-29 colon cancer cell, FIG. 6A. Here is the method:
FIGS. 6A and 6B show the loss in cell viability in HT-29 colon cancer cells, in response to increasing concentrations of GH 502 (GCBH 118) (FIG. 6A), and the effect of various treatments, including increasing concentration of GH501 (GCBH 110) on U251 malignant glioma cells and BTIC EF12 brain tumor initiating stem cells (FIG. 6B).
The study shown in FIG. 6A examined the effect of GCBH-118 (GH502) on an HT-29 colon cancer cell, showing an IC50 value of about 1 μM. […] The graph indicates an IC50 value for the B1031 compound against the U251 brain cancer cell line of between 2 and 10 μM.

As for `CC(C(=O)N[C@@H](Cc1ccc(OCc2c(Cl)cccc2Cl)cc1)C(=O)NC1CC(C)(C)NC(C)(C)C1)c1ccc(-c2ccccc2)c(F)c1` (stereo partly drawn) [GCBH-100, N—[(R,S)-2-Fluoro-α-methyl-4-biphenylacetyl]-[O-(2,6,dichlorobenzyl)-L-tyrosine]-N-(2,2,6,6-tetramethyl-4-piperidinyl)amide], the IC50 in the data set with H2122 (Homo sapiens, NCI-H2122) stood at 4000 nM. The Solubility in data set [1] stood at 50% DMSO. On to `CC(C(=O)N[C@@H](Cc1ccc(OCc2c(Cl)cccc2Cl)cc1)C(=O)NCCCN1CCN(C)CC1)c1ccc(-c2ccccc2)c(F)c1` (stereo partly drawn) [GCBH-102, N—[(R,S)-2-Fluoro-α-methyl-4-biphenylacetyl]-[O-(2,6,dichlorobenzyl)-L-tyrosine]-N-[3-(4-methyl-1-piperizinyl)propyl]amide], for which the IC50 in the data set with H2122 stood at 8000 nM. Besides, the Solubility in data set [1] is on record as 20% DMSO. Consider `CC(C(=O)N[C@@H](Cc1ccc(-c2ccccc2)cc1)C(=O)NC1CC(C)(C)NC(C)(C)C1)c1ccc(-c2ccccc2)c(F)c1` (stereo partly drawn) [GCBH-104, N—[(R,S)-2-Fluoro-α-methyl-4-biphenylacetyl]-[L-(4-phenylphenyl)alanine]-N-(2,2,6,6-tetramethyl-4-piperidinyl)amide], for which, in data set [2], the “inhibition of growth of the lung carcinoma cell line H2122 tumor” value was determined as 74%. Regarding `CC(C(=O)N[C@H](C(=O)NC1CC(C)(C)NC(C)(C)C1)C(c1ccccc1)c1ccccc1)c1ccc(-c2ccccc2)c(F)c1` (some centres unmarked) [GCBH-106], the IC50 in the data set on H2122 (Homo sapiens, NCI-H2122) was 1200 nM. In addition, the Solubility in data set [1] is on record as 50% DMSO. Take `CC(C(=O)N[C@@H](Cc1ccc(OCc2c(Cl)cccc2Cl)cc1)C(=O)NC1CC(C)(C)NC(C)(C)C1)c1ccc(-c2ccccc2)c(F)c1` (stereo partly drawn) [GCBH-112, N—[(R,S)-2-Fluoro-α-methyl-4-biphenylacetyl]-[O-(2,6,dichlorobenzyl)-L-tyrosine]-N-(2,2,6,6-tetramethyl-4-piperidinyl)amide]: in the data set with H2122, the IC50 came out at 1600 nM. Further, the Solubility in data set [1] stood at 50% DMSO. Take `CC(C(=O)N[C@@H](Cc1csc2ccccc12)C(=O)NC1CC(C)(C)NC(C)(C)C1)c1ccc(-c2ccccc2)c(F)c1` (stereo partly drawn) [GCBH-114, N—[(R,S)-2-Fluoro-α-methyl-4-biphenylacetyl]-(L-3-benzothienylalanine)-N-(2,2,6,6-tetramethyl-4-piperidinyl)amide]: the IC50 in the data set on H2122 (Homo sapiens, NCI-H2122) worked out at 1200 nM. In data set [1], this molecule showed a Solubility of 50% DMSO. As to `CC(C(=O)N[C@@H](CC1CCCCC1)C(=O)NC1CC(C)(C)NC(C)(C)C1)c1ccc(-c2ccccc2)c(F)c1` (stereo partly drawn) [GCBH-116, N—[(R,S)-2-Fluoro-α-methyl-4-biphenylacetyl]-(β-cyclohexyl-L-alanine)-N-(2,2,6,6-tetramethyl-4-piperidinyl)amide], the IC50 in the data set with H2122 (Homo sapiens, NCI-H2122) came out at 2300 nM. For the same molecule, the Solubility in data set [1] is 20% DMSO. Turning to `CC(C(=O)N[C@@H](Cc1cccnc1)C(=O)NC1CC(C)(C)NC(C)(C)C1)c1ccc(-c2ccccc2)c(F)c1` (stereo partly drawn) [GCBH-118, N—[(R,S)-2-Fluoro-α-methyl-4-biphenylacetyl]-(β-3-pyridyl-L-alanine)-N-(2,2,6,6-tetramethyl-4-piperidinyl)amide], the IC50 was 1400 nM in the data set on H2122 (Homo sapiens, NCI-H2122) and roughly 1000 nM in the data set on HT-29 colon cancer cells. `C[C@H](C(=O)NC(CC(=O)NC1CC(C)(C)NC(C)(C)C1)c1ccc(-c2ccccc2)cc1)c1ccc(-c2ccccc2)c(F)c1` (stereo partly drawn) [GCBH-120, N—[(S)-2-Fluoro-α-methyl-4-biphenylacetyl]-[R,S,-β-(p-biphenyl)-β-alanine]-N-(2,2,6,6-tetramethyl-4-piperidinyl)amide]: the IC50 in the data set on H2122 (Homo sapiens, NCI-H2122) came out at 5400 nM. The molecule further returned a Solubility in data set [1] of 50% DMSO.

For the molecule `C[C@H](C(=O)N[C@@H](Cc1ccc(C(F)(F)F)cc1)C(=O)NC1CC(C)(C)NC(C)(C)C1)c1ccc(-c2ccccc2)c(F)c1` [GCBH-122, N—[(S)-2-Fluoro-α-methyl-4-biphenylacetyl]-[(4-trifluoromethyl)-L-phenylalanine]-N-(2,2,6,6-tetramethyl-4-piperidinyl)amide], the IC50 in the data set on H2122 (Homo sapiens, NCI-H2122) came to 2100 nM. For the same molecule, the Solubility in data set [1] stood at 50% DMSO.

Regarding `C[C@H](C(=O)N[C@@H](Cc1ccc(F)cc1)C(=O)NC1CC(C)(C)NC(C)(C)C1)c1ccc(-c2ccccc2)c(F)c1` [GCBH-124, N—[(S)-2-Fluoro-α-methyl-4-biphenylacetyl]-[(4-fluoro)-L-phenylalanine]-N-(2,2,6,6-tetramethyl-4-piperidinyl)amide], in the data set on H2122 (Homo sapiens, NCI-H2122), the IC50 stood at 2500 nM. In data set [1], this molecule returned a Solubility of 20% DMSO.

As to `C[C@H](C(=O)N[C@@H](Cc1ccc(N(CCCl)CCCl)cc1)C(=O)NC1CC(C)(C)NC(C)(C)C1)c1ccc(-c2ccccc2)c(F)c1` [GCBH-126], in the data set on H2122 (Homo sapiens, NCI-H2122), the IC50 amounted to 3800 nM. This molecule also displayed a Solubility in data set [1] of 20% DMSO.
